Measured values as given in US11306125B2, “PCSK9 antagonists bicyclo-compounds” (Merck Sharp & Dohme Corp., priority 2018, dated 2022).
Starred links: 1 amine or outer side, 2 acyl side, 3 side chain; linkers in the order of their positions; H or OH if unused. Positions of bridges follow the written chain, without caps; N, C: chain ends. Non-standard residues stand in square brackets, D forms with d. Residues, ends and D or L forms follow the SMILES beside them. *: point of attachment. X2 = CC1(C)C(/C=C/C=C/C=C2\N(CCCS(=O)(=O)O)c3ccc(S(=O)(=O)O)cc3C2(C)CCCCCC(=O)*)=[N+](CCCS(=O)(=O)[O-])c2ccc(S(=O)(=O)O)cc21; Phe(3-CH2NH2) = O=C([C@H](Cc1cccc(CN[*:3])c1)N[*:1])[*:2]; Me3N+(CH2)2O(CH2)2O(CH2)2CO = C[N+](C)(C)CCOCCOCCC(=O)*; Trp(5-F) = N[C@@H](Cc1c[nH]c2ccc(F)cc12)C(=O)O; X1 = O=C(CCC(=O)[*:1])NCc1ccc(CCN[*:2])cc1; mXylylene = c1cc(C[*:1])cc(C[*:2])c1; AEF = NCCOc1ccc(C[C@H](N)C(=O)O)cc1; Glutaryl = O=C(CCCC(=O)[*:2])[*:1]; NMeE = CN[C@@H](CCC(=O)O)C(=O)O; αMeP = C[C@@]1(C(=O)O)CCCN1; dDap = NC[C@@H](N)C(=O)O; Dap = NC[C@H](N)C(=O)O; Boc = CC(C)(C)OC(=O)*; Mpa = O=C(O)CCS; tBu = CC(C)(C)*

Assays:
Type in all cases: binding
PCSK9 [1] = target: T1, PCSK9 (Homo sapiens, UniProt Q8NBP7); assay: PCSK9 Alexa FRET Plus TR-FRET assay
T1 construct: purchased
Method: A solution containing 1 nM biotinylated PCSK9+2.5 nM Lance Streptavidin Europium (Strep-Eu) is made in 50 mM HEPES pH 7.4, 0.15 M NaCl, 5 mM CaCl2, 0.01% BSA, and 0.01% Surfactant P20. A separate solution containing 1920 nM of the AlexaFluor tagged cyclic peptide is made in the same buffer system. An Echo is used to transfer 0.075 ul of compound plus 0.675 ul of DMSO to each well of an assay plate followed by the addition of 15 ul of PCSK9+Stept-Eu and 15 ul of AF peptide. The final assay volume is 30.750 ul containing 0.5 nM PCSK9, 1.25 nM Strep-Eu, and 960 nM AF cyclic peptide. The reaction is incubated at room temperature for at least two hours prior to fluorescence measurements using an Envision Multilabel Reader. IC50 values are determined by fitting data to a sigmoidal dose-response curve using nonlinear regression. Ki is then calculated from the IC50 and the KD of AF cyclic peptide. Counts (B-counts) of the europium-labeled PCSK9 are followed to observe if compounds are adversely affecting PCSK9. A fall off of the B-counts is likely indicates a false positive of inhibition. Data from this procedure is reported as “P=‘numerical value’ (nanomolar)”

PCSK9 [2] = target: T1, PCSK9; assay: PCSK9 Alexa FRET Standard TR-FRET assay
Method: A solution containing 1 nM biotinylated PCSK9+2.5 nM Lance Streptavidin Europium (Strep-Eu) is made in 50 mM HEPES pH 7.4, 0.15 M NaCl, 5 mM CaCl2, 0.01% BSA, and 0.01% Surfactant P20. […] An Echo is used to transfer 0.750 ul of compound to an assay plate followed by the addition of 15 ul of PCSK9+Stept-Eu and 15 ul of AF peptide. […] The reaction is incubated at room temperature for at least two hours prior to fluorescence measurements using an Envision Multilabel Reader. IC50 values are determined by fitting data to a sigmoidal dose-response curve using nonlinear regression. Ki is then calculated from the Ic50 and the KD of AF cyclic peptide. Counts (B-counts) of the europium-labeled PCSK9 are followed to observe if compounds are adversely PCSK9. A fall off of the B-counts is likely indicates a false positive of inhibition. Data from this procedure is reported as “A=‘numerical value’ (nanomolar)”

PCSK9 [3] = target: T1, PCSK9; assay: KD of the AlexaFluor647 tagged cyclic peptide probes for PCSK9; conditions: AF tagged cyclic peptide probe, interaction with PCSK9
[4] = displacement of AlexaFluor647 tagged cyclic peptide Reagent B (960 nM) from biotinylated PCSK9 (0.5 nM), read-out: Plus / P (Alexa Fret plus standard TR Fret), Ki calculated from the IC50 and the KD of AF cyclic peptide
[5] = displacement of AlexaFluor647 tagged cyclic peptide Reagent A (20 nM) from biotinylated PCSK9 (0.5 nM), read-out: A (standard TR Fret), Ki calculated from the IC50 and the KD of AF cyclic peptide

T1 sequence (Q8NBP7 153-692): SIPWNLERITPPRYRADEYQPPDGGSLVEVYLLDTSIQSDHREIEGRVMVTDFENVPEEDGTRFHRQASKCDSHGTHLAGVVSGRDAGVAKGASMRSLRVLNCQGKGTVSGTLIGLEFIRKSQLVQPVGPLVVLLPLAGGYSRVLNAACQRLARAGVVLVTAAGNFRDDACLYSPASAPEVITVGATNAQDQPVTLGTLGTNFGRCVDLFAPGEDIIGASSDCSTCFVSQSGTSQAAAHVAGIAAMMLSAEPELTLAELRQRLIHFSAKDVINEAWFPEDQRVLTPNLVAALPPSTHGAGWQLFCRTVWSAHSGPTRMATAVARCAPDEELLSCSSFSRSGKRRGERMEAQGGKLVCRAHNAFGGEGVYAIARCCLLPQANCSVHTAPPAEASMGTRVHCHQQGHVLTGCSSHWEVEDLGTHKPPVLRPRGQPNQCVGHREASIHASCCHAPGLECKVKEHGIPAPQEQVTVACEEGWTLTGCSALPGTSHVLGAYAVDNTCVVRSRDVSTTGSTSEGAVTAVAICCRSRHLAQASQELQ

| Compound | Ki (PCSK9 [2]; [5]) [nM] | Ki (PCSK9 [1]) [nM] | Ki (PCSK9 [2]) [nM] | also measured |
| --- | --- | --- | --- | --- |
| COc1ccc(C[C@@H]2NC(=O)[C@H]([C@@H](C)O)NC(=O)[C@@H]3[C@@H]4CCN3C(=O)[C@H](Cc3c[nH]c5ccc(F)cc35)NC(=O)[C@H](Cc3cccc(c3)CNC(=O)CO4)NC(=O)[C@@H](C)NC(=O)[C@H](CN)NC(=O)CCC(=O)NCc3ccc(cc3)CCNC(=O)[C@]3(C)CCCN3C2=O)cc1 [Ex-B01] | – | 1.24 | 2.04 | – |
| COc1ccc(C[C@@H]2NC(=O)[C@H]([C@@H](C)O)NC(=O)[C@@H]3[C@@H]4CCN3C(=O)[C@H](Cc3c[nH]c5ccc(F)cc35)NC(=O)[C@H](Cc3cccc(c3)Cn3cc(nn3)CO4)NC(=O)[C@@H](C)NC(=O)[C@H](CNC(=O)CCOCCOCC[N+](C)(C)C)NC(=O)CCC(=O)NCc3ccc(cc3)CCNC(=O)[C@]3(C)CCCN3C2=O)cc1 [Ex-OT-06] | – | 0.29 | < 1.26 | – |
| COc1ccc(C[C@@H]2NC(=O)[C@H]([C@@H](C)O)NC(=O)[C@@H]3[C@@H]4CCN3C(=O)[C@H](Cc3c[nH]c5ccc(F)cc35)NC(=O)[C@H](Cc3cccc(c3)CNC(=O)CO4)NC(=O)C(CN)NC(=O)[C@H](C)NC(=O)CCC(=O)NCc3ccc(cc3)CCNC(=O)[C@]3(C)CCCN3C2=O)cc1 (stereo partly shown) [Ex-B03] | – | 0.008 | < 1.26 | – |
| COc1ccc(C[C@@H]2NC(=O)[C@H]([C@@H](C)O)NC(=O)[C@@H]3CCC(=O)NCc4cccc(c4)C[C@H](NC(=O)[C@@H](C)NC(=O)CCCC(=O)NCCOc4ccc(cc4)C[C@@H](C(N)=O)NC(=O)[C@]4(C)CCCN4C2=O)C(=O)N[C@@H](Cc2c[nH]c4ccc(F)cc24)C(=O)N3C)cc1 [Ex-C02] ([dA][Phe(3-CH2NH2)][Trp(5-F)][NMeE]TY(Me)[αMeP][AEF]-NH2; lactam 2-4; linker N-8 via Glutaryl) | 151 | – | – | – |
| COc1ccc(C[C@@H]2NC(=O)[C@H]([C@H](C)O)NC(=O)[C@@H]3[C@@H]4CCN3C(=O)[C@H](Cc3c[nH]c5ccc(F)cc35)NC(=O)[C@H](Cc3cccc(c3)Cn3cc(nn3)CO4)NC(=O)[C@@H](C)NC(=O)[C@H](CNC(=O)CCOCCOCC[N+](C)(C)C)NC(=O)CCC(=O)NCc3ccc(cc3)C[C@@H](C(N)=O)NC(=O)[C@]3(C)CCCN3C2=O)cc1 [Ex-OT-05] | – | 0.19 | < 1.26 | – |
| COc1ccc(C[C@@H]2NC(=O)[C@H]([C@@H](C)O)NC(=O)C[C@@H]3[C@@H]4CCN3C(=O)[C@H](Cc3c[nH]c5ccc(F)cc35)NC(=O)[C@H](Cc3cccc(c3)CNC(=O)CO4)NC(=O)[C@@H](CNC(=O)CCOCCOCC[N+](C)(C)C)NC(=O)[C@H](C)NC(=O)CCC(=O)NCc3ccc(cc3)CCNC(=O)[C@]3(C)CCCN3C2=O)cc1 [Ex-B04] | < 1.26 | – | – | Ki (PCSK9 [1]; [4]): 0.02 nM |
| COc1ccc(C[C@@H]2NC(=O)[C@H]([C@@H](C)O)NC(=O)[C@@H]3CCC(=O)NCc4cccc(c4)C[C@H](NC(=O)[C@@H](C)NC(=O)[C@H](CNC(=O)CCOCCOCC[N+](C)(C)C)NC(=O)CCC(=O)NCc4ccc(cc4)CCNC(=O)[C@]4(C)CCCN4C2=O)C(=O)N[C@@H](Cc2c[nH]c4ccc(F)cc24)C(=O)N3C)cc1 [Ex-C03] ([Dap](Me3N+(CH2)2O(CH2)2O(CH2)2CO)[dA][Phe(3-CH2NH2)][Trp(5-F)][NMeE]TY(Me)[αMeP]; lactam 3-5; linker N-C via X1) | 18.4 | – | – | – |
| COc1ccc(C[C@@H]2NC(=O)[C@H]([C@@H](C)O)NC(=O)[C@@H]3[C@@H]4CCN3C(=O)[C@H](Cc3c[nH]c5ccc(F)cc35)NC(=O)[C@H](Cc3cccc(c3)CNC(=O)CO4)NC(=O)[C@@H](C)NC(=O)[C@H](CNC(=O)CCOCCOCC[N+](C)(C)C)NC(=O)CCC(=O)NCc3ccc(cc3)CCNC(=O)[C@]3(C)CCCN3C2=O)cc1 [Ex-B02] | – | 2.19 | 4.02 | – |
| COc1ccc(C[C@@H]2NC(=O)[C@H]([C@@H](C)O)NC(=O)[C@@H]3CCC(=O)NCc4cccc(c4)C[C@H](NC(=O)[C@@H](C)NC(=O)[C@H](C)NC(=O)[C@@H](NC(C)=O)CC(=O)NCCOc4ccc(cc4)C[C@@H](C(N)=O)NC(=O)[C@]4(C)CCCN4C2=O)C(=O)N[C@@H](Cc2c[nH]c4ccc(F)cc24)C(=O)N3C)cc1 [Ex-C01] (Ac-DA[dA][Phe(3-CH2NH2)][Trp(5-F)][NMeE]TY(Me)[αMeP][AEF]-NH2; lactam 1-10, 4-6) | 27.8 | – | – | – |
| CC1(C)C(/C=C/C=C/C=C2\N(CCCS(=O)(=O)O)c3ccc(S(=O)(=O)O)cc3C2(C)CCCCCC(=O)NCCCC[C@@H]2NC(=O)CCSCc3cccc(c3)CSC[C@@H](C(N)=O)NC(=O)[C@]3(C)CCCN3C(=O)[C@H](Cc3ccc(O)cc3)NC(=O)[C@H](Cc3c[nH]cn3)NC(=O)[C@H](CC(=O)O)NC(=O)[C@H](Cc3c[nH]c4ccc(F)cc34)NC(=O)[C@H](Cc3c[nH]c4ccc(F)cc34)NC(=O)CNC2=O)=[N+](CCCS(=O)(=O)[O-])c2ccc(S(=O)(=O)O)cc21 (stereo partly shown) [Reagent A] ([Mpa]K(X2)G[Trp(5-F)][Trp(5-F)]DHY[αMeP]C-NH2; linker 1-10 via mXylylene) | – | – | – | Kd (PCSK9 [3]): 83 nM |

More lines, main results first:

| Ki (PCSK9 [2]; [5]) [nM] | Compound | Ki (PCSK9 [1]) [nM] | Ki (PCSK9 [2]) [nM] | also measured |
| --- | --- | --- | --- | --- |
| < 1.26 | COc1ccc(C[C@@H]2NC(=O)[C@H]([C@H](C)O)NC(=O)[C@@H]3[C@@H]4CCN3C(=O)[C@H](Cc3c[nH]c5ccc(F)cc35)NC(=O)[C@H](Cc3cccc(c3)Cn3cc(nn3)CO4)NC(=O)[C@@H](C)NC(=O)[C@H](C)NC(=O)[C@@H](NC(C)=O)CC(=O)NCc3ccc(cc3)C[C@@H](C(N)=O)NC(=O)[C@]3(C)CCCN3C2=O)cc1 [Ex-OT-03] | – | – | Ki (PCSK9 [1]; [4]): 0.32 nM |
| 4.24 | COc1ccc(C[C@@H]2NC(=O)[C@H]([C@@H](C)O)NC(=O)[C@@H]3CCC(=O)NCc4cccc(c4)C[C@H](NC(=O)[C@@H](C)NC(=O)[C@H](CN)NC(=O)CCC(=O)NCc4ccc(cc4)CCNC(=O)[C@]4(C)CCCN4C2=O)C(=O)N[C@@H](Cc2c[nH]c4ccc(F)cc24)C(=O)N3C)cc1 [Ex-C04] ([Dap][dA][Phe(3-CH2NH2)][Trp(5-F)][NMeE]TY(Me)[αMeP]; lactam 3-5; linker N-C via X1) | – | – | – |
| < 1.26 | COc1ccc(C[C@@H]2NC(=O)[C@H]([C@@H](C)OC(C)(C)C)NC(=O)[C@@H]3CCC(=O)NCc4cccc(c4)C[C@H](NC(=O)[C@@H](CNC(=O)OC(C)(C)C)NC(=O)[C@H](C)NC(=O)CCC(=O)NCc4ccc(cc4)CCNC(=O)[C@]4(C)CCCN4C2=O)C(=O)N[C@@H](Cc2c[nH]c4ccc(F)cc24)C(=O)N3C)cc1 [Ex-C05] (A[dDap](Boc)[Phe(3-CH2NH2)][Trp(5-F)][NMeE]T(tBu)Y(Me)[αMeP]; lactam 3-5; linker N-C via X1) | – | – | Ki (PCSK9 [1]; [4]): 4.37 nM |
| 15.9 | COc1ccc(C[C@@H]2NC(=O)[C@H]([C@@H](C)O)NC(=O)[C@@H]3CCC(=O)NCc4cccc(c4)C[C@H](NC(=O)[C@@H](CN)NC(=O)[C@H](C)NC(=O)CCC(=O)NCc4ccc(cc4)CCNC(=O)[C@]4(C)CCCN4C2=O)C(=O)N[C@@H](Cc2c[nH]c4ccc(F)cc24)C(=O)N3C)cc1 [Ex-C06] (A[dDap][Phe(3-CH2NH2)][Trp(5-F)][NMeE]TY(Me)[αMeP]; lactam 3-5; linker N-C via X1) | – | – | – |
| < 1.26 | COc1ccc(C[C@@H]2NC(=O)[C@H]([C@H](C)O)NC(=O)[C@@H]3[C@@H]4CCN3C(=O)[C@H](Cc3c[nH]c5ccc(F)cc35)NC(=O)[C@H](Cc3cccc(c3)Cn3cc(nn3)CO4)NC(=O)[C@@H](C)NC(=O)[C@H](CCCC[N+](C)(C)C)NC(=O)CCC(=O)NCc3ccc(cc3)C[C@@H](C(N)=O)NC(=O)[C@]3(C)CCCN3C2=O)cc1 [Ex-OT-04] | – | – | Ki (PCSK9 [1]; [4]): 0.32 nM |
| 7.17 | COc1ccc(C[C@@H]2NC(=O)[C@H]([C@@H](C)O)NC(=O)[C@@H]3CCC(=O)NCc4cccc(c4)C[C@H](NC(=O)[C@@H](CNC(=O)CCOCCOCC[N+](C)(C)C)NC(=O)[C@H](C)NC(=O)CCC(=O)NCc4ccc(cc4)CCNC(=O)[C@]4(C)CCCN4C2=O)C(=O)N[C@@H](Cc2c[nH]c4ccc(F)cc24)C(=O)N3C)cc1 [Ex-C07] (A[dDap](Me3N+(CH2)2O(CH2)2O(CH2)2CO)[Phe(3-CH2NH2)][Trp(5-F)][NMeE]TY(Me)[αMeP]; lactam 3-5; linker N-C via X1) | – | – | – |
